In US20260115162A1, “COMPOSITION OR ASSOCIATION OF COMPOUNDS PREFERABLY FOR USE IN THE TREATMENT OF NERVOUS DISEASES IN PARTICULAR NEURODEGENERATIVE DISEASES, METHOD FOR THE PREPARATION OF SUCH COMPOSITION OR ASSOCIATION OF COMPOUNDS AND USES THEREOF” (PHARMACEUTICA SAN MARCO S.R.L., priority 2022, published 2026):
Like-named read-outs stand apart in the source and are kept apart here.

Experiments:
[1] = Plasma and brain levels of βBA and AKBA via os in mice (Gerbeth K et al. 2013); format: in vivo
Description: βBA appears not to undergo blood-brain barrier. According to the data of Gerbeth K et al. 2013, brain levels of AKBA were very low, resulting 0.4 per AKBA in the brain/plasma ratio (but 0.81 according to Weber C C et al. 2006). In contrast, the § BA concentration in the brain was even higher than that found in the blood with 32% increase (See Table 1).

intact mice = experiment: Behavioral tests on intact animals (open field, freezing); format: in vivo
Protocol: The trials were performed at the Department of Clinical and Experimental Medicine of the University of Foggia according to the following rationale. • 1. In the present mouse model of beta-amyloid toxicity, using validated tests in mice, we evaluated the behaviors: • a. antidepressant: Tail Suspension Test (TST); Forced Swimming Test (FST); Splash Test (ST) with latency time (sec) and self-care (sec) measurement. • b. antianxiety: Open Field Test with measurement of distance traveled (m), time spent in the wall (sec), time spent in the center (sec), center entries (n); Freezing Test (sec). • c. on memory, learning, coordination of motor skills, fear conditioning: Rotarod Test with measure of Latency to Fall, repeated after training to evaluate motor learning. • 2. We tested the protective effects with the following procedure: • a. individually: βCP, FE, βBA, DHA and HA4; • b. in association with pairs: βCP+HA4, FE+HA4, βBA+HA4, FE+βCP, βBA+FE, βBA+βCP. • c. in association, all four together: βCP+FE+βBA+HA4 • d. versus control (SHAM), • e. using the mouse model of an Aβ-induced depressive phenotype. • 3. These behavioral tests were integrated with serotonin, dopamine, noradrenaline and their metabolites prefrontal cortex and hippocampus measurement. • 4. Furthermore, we evaluated the cortical and hippocampal glutamate (GLU) levels in mice treated with AP and subsequently we tested the ability of βCP, FE, βBA and HA4, to modulate this neurochemical parameter.
βCP, FE e βBA (Merck, Cayman Chemical Company) was dissolved in sunflower oil, this vehicle was chosen in order to maintain a better tasting and higher density of the final solution thus reducing reflux through the digestive tract.
Ten μl of the solution (or vehicle alone) were administered sublingually to mice. Brain βCP, FE e βBA were quantified in a separate subset of mice at 5, 15 and 30 min after their administration.
Open Field Test. Mice were placed in an open field arena and allowed to explore for 30 min [Lama A et al. 2021]. After each trial, the arena floor was cleaned with 70% ethanol to avoid inter-assay bias. The movements of mice were video recorded and analyzed by ANY-maze tracking software (Ugo Basile-Varese, Gemonio, Italy). Locomotion was evaluated through total crossing measurements.

synaptophysin = experiment: Synaptophysin in PFC and HIPP of mice treated with Aβ icv, Western blotting (FIG. 11); format: in vivo; conditions: after 7 days
Protocol: The βCP, FE, βBA and HA4 influence on prefrontal and hippocampal synaptic plasticity was evaluated using anti-PSD-95, anti-synaptophysin, anti-CaMKII antibodies.
The Aβ1-42, obtained from Tocris (Bristol, UK), was dissolved in sterile double-distilled pyrogenic-free water, as vehicle, to obtain a final concentration 4 μM [Colaianna M et al. 2010]. Mice were anesthetized with a solution (0.85 in ml/kg, i.p.), containing ketamine (Sigma Aldrich, Milan, Italy, 100 mg/10 ml), xylazine (Sigma Aldrich, Milan, Italy, 100 mg/10 ml) and acepromazine (prequillant, ATI Azienda Terapeutica Veterinaria Srl, 10 mg/10 ml) dissolved in saline solution. […] At the time of dissection, the correct needle track was assessed. […]
The total amount of proteins was measured in homogenates by using Pierce BCA Assay (Thermo Fisher Scientific, Cleveland, OH, USA). […] After HRP-conjugated specific antibody incubation, ECL reagent (Bio-Rad Laboratories Inc., Segrate (MI), Italy) was added to the immune complex and chemiluminescence was detected by ChemiDoc MP system (Bio-Rad Laboratories Inc., Segrate (MI), Italy). Optical densities of the bands were measured using Image J software (http://rsb.info.nih.gov/ij/ accessed on 15 Mar. 2021) and normalized against bands relative to -actin (1:5,000, Abcam, Cambridge, UK).

[2] = healthy volunteers, via os, cited from earlier work
[3] = patients, via os; cited from earlier work
[4] = mice, via os, cited from earlier work

C[C@H]1[C@H](C)CC[C@]2(C)CC[C@]3(C)C(=CC[C@@H]4[C@@]5(C)CC[C@@H](O)[C@](C)(C(=O)O)[C@@H]5CC[C@]43C)[C@H]12 [βBA, β-boswellic acid]
Δos/brain [1]: 26
Δos/plasma [1]: 39
Δplasma/brain [1]: 0.68
increase of concentration in the brain over that in the blood ([1]; Table 1): 32%
lowest dose showing antidepressant effects (intact mice; intact mice, preliminary experiments (unpublished observations)): 5 mg/kg
effect in behavioral tests, individually (intact mice; mouse, in vivo): antidepressant and anxiolytic effect
synaptophysin tissue concentration (synaptophysin): remove Ap-induced alterations
concentration in the plasma ([2]; fasted conditions): 188.2 fasted ng/g o ng/ml
concentration in the plasma ([2]; hyperlipidic fed conditions): 1,120 hyperlipidic ng/g o ng/ml
concentration in the plasma [3]: 2,236 ng/g o ng/ml
reduction of blood concentration compared to the dose introduced orally ([4]; intestinal mucosa to blood): up to 40 times
concentration in the brain [4]: 1,066 ng/g o ng/ml
concentration in the plasma [4]: 725 ng/g o ng/ml
